Source: PMC10419799, “Modes of Action of a Novel c-MYC Inhibiting 1,2,4-Oxadiazole Derivative in Leukemia and Breast Cancer Cells” (Molecules, 2023)

Target: T1, c-MYC (Homo sapiens, UniProt P01106)
T1 construct: human recombinant c-MYC protein (Abcam ab169901)
Assay: microscale thermophoresis with RED-NHS labelled recombinant c-MYC
Assay type: binding

T1 sequence (P01106 16-454): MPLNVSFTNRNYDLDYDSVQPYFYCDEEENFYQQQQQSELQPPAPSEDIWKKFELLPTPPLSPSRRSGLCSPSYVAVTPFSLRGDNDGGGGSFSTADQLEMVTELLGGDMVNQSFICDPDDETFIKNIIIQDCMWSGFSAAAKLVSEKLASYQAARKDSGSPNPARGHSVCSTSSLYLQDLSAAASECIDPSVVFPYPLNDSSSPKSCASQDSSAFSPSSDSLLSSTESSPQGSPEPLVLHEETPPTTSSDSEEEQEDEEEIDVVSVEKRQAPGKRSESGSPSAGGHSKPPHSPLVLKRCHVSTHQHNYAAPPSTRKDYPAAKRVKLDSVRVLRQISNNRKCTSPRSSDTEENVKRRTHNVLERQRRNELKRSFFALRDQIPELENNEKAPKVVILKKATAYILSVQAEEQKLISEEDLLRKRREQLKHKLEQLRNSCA

Kd: 1080 ± 100 nM
Compound: Cc1ccc(NC(=O)N2Cc3[nH]cnc3C[C@H]2c2nc(-c3ccc4ccccc4c3)no2)cc1 [ZINC15675948, (6S)-N-(4-methylphenyl)-6-(3-naphthalen-2-yl-1,2,4-oxadiazol-5-yl)-3,4,6,7-tetrahydroimidazo [4,5-c]pyridine-5-carboxamide]
